Assay results published in the OligoGym collection.
HELM strings list units from the 5' end as sugar, base in round brackets, then linkage (d deoxyribose, r ribose, m 2'-O-methyl, p phosphodiester). Strings are as the collection lists them; they lack the last nucleoside at the 3' end of the tested compound. [moe] = 2'-O-(2-methoxyethyl) (MOE); [sp] = phosphorothioate linkage; [m5C] = 5-methylcytosine

Each substance was assayed against GFAP (assay: mouse, dose not given). Conditions: ASO.
Substance “RNA1{[moe](G)[sp].[moe](T)p.[moe]([m5C])p.[moe](T)p.[moe](T)[sp].d(T)[sp].d(A)[sp].d(T)[sp].d(T)[sp].d(T)[sp].d(T)[sp].d(T)[sp].d([m5C])[sp].[moe]([m5C])p.[moe](T)p.[moe]([m5C])[sp].[moe](A)}$$$$ (last 3' nucleoside missing)” has a 3 h FOB score of 4 score 0-7. Substance “RNA1{[moe](G)[sp].[moe](A)p.[moe]([m5C])p.[moe](T)p.[moe](A)[sp].d(T)[sp].d([m5C])[sp].d(T)[sp].d(A)[sp].d(G)[sp].d(G)[sp].d(A)[sp].d(T)[sp].d(T)[sp].d(T)[sp].[moe](G)p.[moe](G)p.[moe]([m5C])[sp].[moe](A)}$$$$ (last 3' nucleoside missing)” has a 3 h FOB score of 5 score 0-7. “RNA1{[moe](G)[sp].[moe](T)p.[moe](G)p.[moe](T)p.[moe](G)p.[moe](T)p.d(A)[sp].d(T)[sp].d(T)[sp].d(A)[sp].d(G)[sp].d(G)[sp].d(A)[sp].d(T)[sp].d([m5C])[sp].d([m5C])[sp].[moe]([m5C])p.[moe](A)[sp].[moe](T)}$$$$ (last 3' nucleoside missing)” showed a 3 h FOB score of 4 score 0-7. “RNA1{[moe]([m5C])[sp].[moe](A)p.[moe]([m5C])p.[moe](A)p.[moe](T)[sp].d(T)[sp].d([m5C])[sp].d(A)[sp].d([m5C])[sp].d(T)[sp].d(A)[sp].d(A)[sp].d(T)[sp].[moe](A)p.[moe](T)p.[moe](T)[sp].[moe](T)}$$$$ (last 3' nucleoside missing)” gave a 3 h FOB score of 0 score 0-7. Work on “RNA1{[moe]([m5C])[sp].[moe](T)p.[moe](T)p.[moe](T)p.[moe](A)[sp].d(T)[sp].d(T)[sp].d(T)[sp].d(T)[sp].d(T)[sp].d([m5C])[sp].d([m5C])[sp].d(T)[sp].d([m5C])[sp].d(A)[sp].[moe](G)p.[moe]([m5C])p.[moe](G)[sp].[moe](A)}$$$$ (last 3' nucleoside missing)” yielded a 3 h FOB score of 0 score 0-7. “RNA1{[moe](T)[sp].[moe](G)p.[moe](G)p.[moe](T)p.[moe](G)p.d([m5C])[sp].d(T)[sp].d(T)[sp].d(T)[sp].d(T)[sp].d(G)[sp].d([m5C])[sp].d([m5C])[sp].d([m5C])[sp].d([m5C])[sp].[moe]([m5C])p.[moe](T)p.[moe](G)[sp].[moe](T)}$$$$ (last 3' nucleoside missing)” was tested, and the 3 h FOB score was 0 score 0-7. For “RNA1{[moe](G)[sp].[moe]([m5C])p.[moe](T)p.[moe](T)p.[moe](T)p.[moe](T)p.d(G)[sp].d(A)[sp].d(G)[sp].d(A)[sp].d(T)[sp].d(A)[sp].d(T)[sp].d([m5C])[sp].d(T)[sp].d(T)[sp].[moe](G)p.[moe](T)[sp].[moe](G)}$$$$ (last 3' nucleoside missing)”, the 3 h FOB score was 2 score 0-7. With “RNA1{[moe](T)[sp].[moe](T)p.[moe](T)p.[moe](G)p.[moe](T)[sp].d([m5C])[sp].d(T)[sp].d(T)[sp].d(T)[sp].d(A)[sp].d(T)[sp].d(T)[sp].d(T)[sp].[moe](T)p.[moe](T)p.[moe]([m5C])[sp].[moe]([m5C])}$$$$ (last 3' nucleoside missing)” the 3 h FOB score was 0 score 0-7. “RNA1{[moe](G)[sp].[moe]([m5C])p.[moe](A)p.[moe](G)p.[moe](T)[sp].d(A)[sp].d(T)[sp].d(T)[sp].d(A)[sp].d([m5C])[sp].d([m5C])[sp].d(T)[sp].d([m5C])[sp].[moe](T)p.[moe](A)p.[moe]([m5C])[sp].[moe](T)}$$$$ (last 3' nucleoside missing)” showed a 3 h FOB score of 1 score 0-7. In the case of “RNA1{[moe](A)[sp].[moe](G)p.[moe](T)p.[moe](G)p.[moe](T)p.[moe](G)p.d(T)[sp].d(A)[sp].d(T)[sp].d(T)[sp].d(A)[sp].d(G)[sp].d(G)[sp].d(A)[sp].d(T)[sp].d([m5C])[sp].[moe]([m5C])p.[moe]([m5C])[sp].[moe](A)}$$$$ (last 3' nucleoside missing)”, the 3 h FOB score is reported as 4 score 0-7. For “RNA1{[moe](G)[sp].[moe]([m5C])p.[moe]([m5C])p.[moe](T)p.[moe](T)[sp].d([m5C])[sp].d([m5C])[sp].d([m5C])[sp].d(T)[sp].d(T)[sp].d(T)[sp].d([m5C])[sp].d([m5C])[sp].d(T)[sp].d(G)[sp].[moe](T)p.[moe]([m5C])p.[moe](T)[sp].[moe](G)}$$$$ (last 3' nucleoside missing)”, the 3 h FOB score was 5 score 0-7. In the case of “RNA1{[moe](A)[sp].[moe](G)p.[moe](T)p.[moe](A)p.[moe](T)[sp].d(T)[sp].d(A)[sp].d([m5C])[sp].d([m5C])[sp].d(T)[sp].d([m5C])[sp].d(T)[sp].d(A)[sp].[moe]([m5C])p.[moe](T)p.[moe](A)[sp].[moe](G)}$$$$ (last 3' nucleoside missing)”, the 3 h FOB score is reported as 3 score 0-7. “RNA1{[moe](G)[sp].[moe](G)p.[moe]([m5C])p.[moe](T)p.[moe]([m5C])[sp].d(T)[sp].d([m5C])[sp].d(T)[sp].d([m5C])[sp].d(A)[sp].d(T)[sp].d([m5C])[sp].d(T)[sp].d(G)[sp].d(T)[sp].[moe]([m5C])p.[moe](A)p.[moe](A)[sp].[moe](A)}$$$$ (last 3' nucleoside missing)” gave a 3 h FOB score of 4 score 0-7. Work on “RNA1{[moe](G)[sp].[moe](T)p.[moe](G)p.[moe]([m5C])p.[moe](T)[sp].d(T)[sp].d(T)[sp].d(A)[sp].d(G)[sp].d(T)[sp].d(G)[sp].d(A)[sp].d([m5C])[sp].d([m5C])[sp].d(T)[sp].[moe](G)p.[moe](T)p.[moe](G)[sp].[moe](A)}$$$$ (last 3' nucleoside missing)” yielded a 3 h FOB score of 5 score 0-7. In the case of “RNA1{[moe](G)[sp].[moe](T)p.[moe](G)p.[moe]([m5C])p.[moe](T)[sp].d(G)[sp].d(A)[sp].d(G)[sp].d(A)[sp].d(A)[sp].d(T)[sp].d([m5C])[sp].d(A)[sp].d(A)[sp].d(G)[sp].[moe]([m5C])p.[moe](T)p.[moe]([m5C])[sp].[moe]([m5C])}$$$$ (last 3' nucleoside missing)”, the 3 h FOB score is reported as 0 score 0-7. With “RNA1{[moe](A)[sp].[moe](G)p.[moe]([m5C])p.[moe](A)p.[moe](T)[sp].d(A)[sp].d(G)[sp].d(G)[sp].d(G)[sp].d(A)[sp].d(T)[sp].d(A)[sp].d(T)[sp].d([m5C])[sp].d([m5C])[sp].[moe]([m5C])p.[moe](A)p.[moe]([m5C])[sp].[moe]([m5C])}$$$$ (last 3' nucleoside missing)” the 3 h FOB score was 2 score 0-7. Work on “RNA1{[moe](T)[sp].[moe]([m5C])p.[moe](A)p.[moe]([m5C])p.[moe](A)p.[moe](T)p.d(T)[sp].d([m5C])[sp].d(A)[sp].d([m5C])[sp].d(T)[sp].d(A)[sp].d(A)[sp].d(T)[sp].d(A)[sp].d(T)[sp].[moe](T)p.[moe](T)[sp].[moe](A)}$$$$ (last 3' nucleoside missing)” yielded a 3 h FOB score of 0 score 0-7. “RNA1{[moe](A)[sp].[moe](G)p.[moe]([m5C])p.[moe]([m5C])p.[moe](A)[sp].d(G)[sp].d(T)[sp].d(G)[sp].d(T)[sp].d([m5C])[sp].d(T)[sp].d(T)[sp].d([m5C])[sp].d(A)[sp].d([m5C])[sp].[moe](T)p.[moe](T)p.[moe](T)[sp].[moe](G)}$$$$ (last 3' nucleoside missing)” showed a 3 h FOB score of 2 score 0-7. With “RNA1{[moe](G)[sp].[moe](A)p.[moe](G)p.[moe](A)p.[moe](T)[sp].d(A)[sp].d(T)[sp].d([m5C])[sp].d(T)[sp].d(T)[sp].d(G)[sp].d(T)[sp].d(G)[sp].d(A)[sp].d([m5C])[sp].[moe]([m5C])p.[moe](T)p.[moe](T)[sp].[moe](G)}$$$$ (last 3' nucleoside missing)” the 3 h FOB score was 4 score 0-7.
